Results reported in patent US5519155A, “Platinum complexes” (Johnson Matthey Public Limited Company, priority 1994, dated 1996).

Columns and labels:
Adj/PC6 tumours = assay: In vivo test in mice having Adj/PC6 tumours (LD50, ED90, TI); conditions: for ED90 / LD50 / TI (ratio of LD50 to ED90): mice, Adj/PC6 tumours
Method: The compounds of the invention were then tested in vivo in mice having Adj/PC6 tumours. The Adj/PC6 testing was carried out as described by P M Goddard et al presented in Sixth NCI-EORTC Symposium on New Drugs in Cancer Therapy 1989, which is a development of the basic method described by T A Connors et al, Chem Biol Interact 5,415 (1972). The animals were sacrificed when moribund. The compounds were administered parenterally (ip) or orally (po), or in the case of the Example 2 compound, iv at doses of 2.5, 5, 10 and 20 mg/kg (4 animals per dose group).
In the testing, LD50 and ED90 values in mg/kg body weight were determined in the conventional manner. The therapeutic index (TI) was calculated as the ratio of LD50 to ED90, and the results are shown below.

SKOV-3 = assay: In vitro cytotoxicity (SRB assay), human ovarian carcinoma line SKOV-3; assay type: cell-based; conditions: SKOV-3 cells, exposure 48 to 96 hours
Method: (§1) Monolayer cells were trypsinized and seeded in 96-well microtiter plates at a density of 1×10^4 cells/well in 200 μl of growth medium. Cells were incubated overnight and test compounds were added to triplicate wells at various concentrations for a total of 48 to 96 hours. For toxicity analysis after drug exposure, the cells were fixed with trichloroacetic acid and stained for cellular protein content by incubation for 30 minutes with 0.4% (wt/vol) sulphorhodamine B (SRB) dissolved in 1% acetic acid. The unbound dye was removed by 1% acetic acid washes, and the bound dye was extracted with 10 mM Tris buffer. The amount of dye in solution was quantified by absorbance at 564 nm.

41M^R = assay: In vitro cytotoxicity (SRB assay), human ovarian carcinoma line 41M^R; assay type: cell-based; conditions: 41M^R cells, exposure 48 to 96 hours
Method: as §1

HX-62 = assay: In vitro cytotoxicity (SRB assay), human ovarian carcinoma line HX-62; assay type: cell-based; conditions: HX-62 cells, exposure 48 to 96 hours
Method: as §1

CH1 = assay: In vitro cytotoxicity (SRB assay), human ovarian carcinoma line CH1; assay type: cell-based; conditions: CH1 cells, exposure 48 to 96 hours
Method: as §1

41M = assay: In vitro cytotoxicity (SRB assay), human ovarian carcinoma line 41M; assay type: cell-based; conditions: 41M cells, exposure 48 to 96 hours
Method: as §1

CH^R = assay: In vitro cytotoxicity (SRB assay), human ovarian carcinoma line CH^R; assay type: cell-based; conditions: CH^R cells, exposure 48 to 96 hours
Method: as §1

A2780^R = assay: In vitro cytotoxicity (SRB assay), human ovarian carcinoma line A2780^R; assay type: cell-based; conditions: A2780^R cells, exposure 48 to 96 hours
Method: as §1

A2780 = assay: In vitro cytotoxicity (SRB assay), human ovarian carcinoma line A2780; assay type: cell-based; conditions: A2780 cells, exposure 48 to 96 hours
Method: as §1

[1] = i.v., doses 2.5, 5, 10 and 20 mg/kg

| SMILES | ED90 (Adj/PC6 tumours; i.p.) [mg/kg] | LD50 (Adj/PC6 tumours; i.p.) [mg/kg] | TI (ratio of LD50 to ED90) (Adj/PC6 tumours; i.p.) | IC50 (SKOV-3) [µM] | IC50 (41M^R) [µM] | IC50 (HX-62) [µM] | IC50 (CH1) [µM] | IC50 (41M) [µM] | ED90 (Adj/PC6 tumours; [1]) [mg/kg] | LD50 (Adj/PC6 tumours; [1]) [mg/kg] | TI (ratio of LD50 to ED90) (Adj/PC6 tumours; [1]) | therapeutic index, oral route compared to parenteral administration (Adj/PC6 tumours; oral vs parenteral, in words) | ED90 (Adj/PC6 tumours; p.o.) [mg/kg] | LD50 (Adj/PC6 tumours; p.o.) [mg/kg] | TI (ratio of LD50 to ED90) (Adj/PC6 tumours; p.o.) | IC50 (CH^R) [µM] | IC50 (A2780^R) [µM] | IC50 (A2780) [µM] |
| --- | --- | --- | --- | --- | --- | --- | --- | --- | --- | --- | --- | --- | --- | --- | --- | --- | --- | --- |
| CCCC(=O)[O][Pt]([Cl])([O]C)[O]C(=O)CCC.N.NC1CCCCC1 [Example 1, c,t,c-[PtCl(OMe)(O2 CC3 H7)2 NH3 (c-C6 H11 NH2)]] | 2.6 | 17.5 | 6.7 | 0.03 | 0.013 | 0.22 | 0.002 | 0.01 |  |  |  |  |  |  |  |  |  |  |
| CC(=O)[O][Pt]([OH])([OH])[O]C(C)=O.N.NC1CCCCC1 [Example 2, c,t,c-[Pt(OH)2 (OAc)2 NH3 (c-C6 H11 NH2)]] | 4.2 | 17.5 | 4.2 | 21 | 4.3 | 37 | 0.74 | 6.5 | < 2.5 | 14 | > 5.6 | greater therapeutic index | 42 | 670 | 16 | 1.35 | 3.7 | 4.2 |
| CC(C)N.CC(C)N.CCCCCC(=O)[O][Pt]([OH])([Cl])[O]C(=O)CCCCC [Example 3, c,t,c-[PtCl(OH)(O2 CC5 H11)2 (i-C3 H7 NH2)2]] |  |  |  | 0.0046 | < 0.0025 | 0.05 | < 0.0025 | < 0.0025 |  |  |  |  |  |  |  | < 0.0025 | 0.0029 | < 0.0025 |
| CC(=O)[O][Pt]([OH])([Cl])[O]C(C)=O.CC(C)N.CC(C)N [Example 4, c,t,c-[PtCl(OH)(OAc)2 (i-C3 H7 NH2)2]] |  |  |  | 1.6 | 0.59 | 2.1 | 0.086 | 0.89 |  |  |  |  |  |  |  | 0.21 | 1.9 | 0.65 |
| CC(=O)[O][Pt]([OH])([Cl])[O]C(C)=O.N.NC1CCCCC1 [Example 6, c,t,c-[PtCl(OH)(OAc)2 NH3 (c-C6 H11 NH2)]] |  |  |  | 1.15 | 0.44 | 3.1 | 0.022 | 0.24 |  |  |  |  |  |  |  | 0.082 | 0.93 | 0.31 |
| CC(C)N.CC(C)N.C[O][Pt]([OH])([O]C(C)=O)[O]C(C)=O [Example 7, c,t,c-[Pt(OH)(OMe)(OAc)2 (i--C3 H7 NH2)2]] |  |  |  | 6.1 | 2.5 | 12.5 | 0.26 | 3.1 |  |  |  |  |  |  |  |  |  |  |
